Measured values reported in patent US20110257204A1, “Penciclovir or Famciclovir for Treatment of Recurrent Genital Herpes with a One-Day Application” (priority 2005, published 2011).
Like-named read-outs stand apart in the source and are kept apart here.

Assays:
[1] = regardless of the dose given; cited from earlier work
[2] = system: recurrent genital herpes lesions; conditions: previous trial; clinic-initiated treatment, low dose 125 mg twice a day for five days; cited from earlier work
[3] = system: recurrent genital herpes lesions; format: in vivo, human; conditions: for Time to healing of all lesions (median) / Proportion of aborted lesions: ITT; for Time to healing of all lesions (median): aborted lesions assigned time to healing of zero; for Time to healing of all lesions (median) / Proportion of aborted lesions / Time to healing of non-aborted lesions (median): famciclovir 1,000 mg b.i.d. for one day; for Hazard ratio, time to healing of non-aborted lesions: famciclovir 1,000 mg b.i.d. one day vs placebo
Procedure: The multi-center, multi-country, randomized, double-blind parallel-group, placebo controlled study is conducted to assess the efficacy and safety of a patient-initiated one-day treatment with famciclovir ([…]) 1,000 mg, twice a day, in patients with recurrent genital herpes. Approximately 450 eligible patients are randomized in a 1:1 ratio to receive either famciclovir (1,000 mg, twice a day) or matching placebo for one day. Patients are instructed to obtain a viral sample and initiate treatment within six hours of prodrome and/or recurrence of genital herpes lesions. All patients are required to return for clinic visits for observation of lesions on Days 2 and 3. Patients with lesions will continue with clinic visits on Days 4 and 5, then every other day until it is deemed that lesion healing has occurred however not to exceed Day 14. The following Table 1 represents the study design. Each patient receives either Famciclovir 2,000 mg [1,000 mg (4×250 mg capsules)] orally or placebo (4×250 mg matching placebo capsules) orally twice in one day. Study medication is to be administered twice in one day (during normal waking hours). One-day equals to 24 hours, if the patent starts a first dose in the PM the second should be taken upon waking in the AM. The first dose is taken within six hours of prodrome and/or genital herpes lesion occurrence. Within 6 hours of recurrence of either genital herpes symptom onset and/or lesion and prior to initiating therapy, patients obtain a viral sample for PCR at Visit 1. The sample is brought to the clinic at Visit 2. Patients maintain a diary to assess and record appearance/stage and location of lesion. From Visit 2 onwards, physicals are performed by clinician who examines genitalia for herpes lesions. Patients with lesions will continue with clinic visit on Days 4 (Visit 5) and 5 (Visit 6) then every other day until clinician investigator deems that the lesion healing has occurred however not to exceed Day 14. Should patients only experience symptoms, without onset of herpes lesion, these patients will return for clinic visits until resolution of symptoms. The primary efficacy variable refers to the investigator-assessed time to healing (re-epithelization, erythema may be present) of all non-aborted genital herpes lesions from the time of the first dose of study medication. Non-aborted lesions refer to all lesions requiring re-epithelization: lesions which undergo vesicular, ulcer/soft crust, hard crust formation. […] Primary efficacy variable is analyzed using the proportional hazards model, with treatment, gender and study center as explanatory variables, for patients over the modified ITT population. The Efron approximate likelihood method is used for resolution of ties. The 95% confidence intervals for the hazard ratio and median times to healing is calculated. The time to healing based on investigator-assessment (with aborted lesions assigned a time of zero) is analyzed on the PCR-positive and the ITT populations. A proportional hazards model is used in analysis, with treatment, gender, and study center as explanatory variables. The Efron approximate likelihood method is used for resolution of ties. A 95% confidence interval for the hazard ratio and median times to healing is calculated. Covariates and interactions listed for the primary efficacy variable are assessed separately by adding their terms into the proportional hazards model. The time to resolution of each symptom, as well as the time to resolution of all symptoms, will be analyzed using a proportional hazards model with treatment, gender, and study center as explanatory variables, over the ITT population. The proportion of patients reporting each symptom is presented descriptively, and compared between treatments using the Chochran-Mantel-Haenszel 9CHM) test, stratified by gender and study center, over the ITT population. […]

[4] = patients receiving famciclovir in earlier studies; cited from earlier work

In the case of CC(=O)OCC(CCn1cnc2cnc(N)nc21)COC(C)=O [famciclovir, 9-(4-acetoxy-3-acetoxymethylbut-1-yl)-2-aminopurine], the Bioavailability [1] is listed as 77%, the “Hazard ratio between famciclovir and placebo for time to healing” value [2] is listed as 1.48 and the “Time to healing of all lesions (median)” value [3] is listed as 3.5 days. The “Time to healing of all lesions (median)” value ([3]; listed as Famciclovir) was 4.3 days, the “Proportion of aborted lesions” value [3] was 23.3% and the “Proportion of aborted lesions” value ([3]; listed as Famciclovir) was 23.3%. The “Time to healing of non-aborted lesions (median)” value ([3]; Modified ITT, oral, patient-initiated within 6 hours) was 4.3 days, the “Hazard ratio, time to healing of non-aborted lesions” value ([3]; Modified ITT, proportional hazards model) was 1.64 and the “Time to healing of non-aborted lesions (median)” value ([3]; Per Protocol) was 4.3 days. The “Hazard ratio, time to healing of non-aborted lesions” value ([3]; Per Protocol) was 1.72, the “Reduction of median time to healing of recurrent genital herpes lesions compared to placebo” value ([3]; famciclovir 1,000 mg twice a day, one day, immunocompetent patients, non-aborted lesions) was “two” and the “Most commonly reported adverse events” value [4] was “headache and nausea”.
